Test results taken from US7655665B2, “Nitromethylene derivatives and their use” (East China University of Science and Technology, priority 2004, dated 2010).

Key:
[1] = tested on: Aphis craccivoral; test: Insecticidal activity against Aphis craccivoral by immersing (dipping aphids on bean sprout); type: in vivo; conditions: 500 ppm (500 ug/mL dilution), dipped 5 seconds, killed aphis counted after 24 hours, 23° C.
Method in brief: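 Wingless adult A. craccivora feeding on bean sprouts dipped 5 seconds in compound at 500 ug/mL (0.2 mL/L Triton X-100 aqueous), then held at 23 °C. Mortality counted after 24 hours, three replicates, vehicle-only control.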

[2] = tested on: Nilaparvata lugens; test: Insecticidal activity against Nilaparvata lugens (planthopper) by spraying; type: in vivo; conditions: 500 ppm, spraying 2 ml per tumbler, killed counted after 24 hours
Method in brief: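 Ten planthoppers per tumbler were introduced 6 hours before spraying with 2 ml of test solution, with clean water as blank control. Each treatment had 3 replicates, and three series were run. Mortality was counted after 24 hours.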

Compound	mortality (%) (500 ppm) Aphis [1]	mortality (%) (500 ppm) Nilaparvata-lugens [2]
CCCCCN=C1CCC([N+](=O)[O-])=C2N(Cc3ccc(Cl)nc3)CCCN12 [Compound 208]	35	67
CC(C)CCN=C1CCC([N+](=O)[O-])=C2N(Cc3ccc(Cl)nc3)CCCN12 [Compound 209]	23	26
CCCC(C)N=C1CCC([N+](=O)[O-])=C2N(Cc3ccc(Cl)nc3)CCCN12 (stereo not shown) [Compound 210]	7	77
CC(C)(C)CN=C1CCC([N+](=O)[O-])=C2N(Cc3ccc(Cl)nc3)CCCN12 [Compound 211]	34	56
N=C1CCC([N+](=O)[O-])=C2N(Cc3cnc(Cl)s3)CCN12 [Compound 212]	34	23
CN=C1CCC([N+](=O)[O-])=C2N(Cc3cnc(Cl)s3)CCN12 [Compound 213]	32	78
CCN=C1CCC([N+](=O)[O-])=C2N(Cc3cnc(Cl)s3)CCN12 [Compound 214]	55	90
O=[N+]([O-])C1=C2N(Cc3cnc(Cl)s3)CCN2C(=NCCCl)CC1 [Compound 215]	9	97
CCCCN=C1CCC([N+](=O)[O-])=C2N(Cc3cnc(Cl)s3)CCN12 [Compound 216]	66	98
CCCN=C1CCC([N+](=O)[O-])=C2N(Cc3cnc(Cl)s3)CCN12 [Compound 217]	23	100
CCCCCN=C1CCC([N+](=O)[O-])=C2N(Cc3cnc(Cl)s3)CCN12 [Compound 218]	45	67
CC(C)N=C1CCC([N+](=O)[O-])=C2N(Cc3cnc(Cl)s3)CCN12 [Compound 219]	34	45
N=C1CCC([N+](=O)[O-])=C2N(Cc3cnc(Cl)s3)CCCN12 [Compound 220]	16	56
CN=C1CCC([N+](=O)[O-])=C2N(Cc3cnc(Cl)s3)CCCN12 [Compound 221]	4	67
CCN=C1CCC([N+](=O)[O-])=C2N(Cc3cnc(Cl)s3)CCCN12 [Compound 222]	4	89
O=[N+]([O-])C1=C2N(Cc3cnc(Cl)s3)CCCN2C(=NCCCl)CC1 [Compound 223]	5	76
CCCCN=C1CCC([N+](=O)[O-])=C2N(Cc3cnc(Cl)s3)CCCN12 [Compound 224]	45	66
CCCN=C1CCC([N+](=O)[O-])=C2N(Cc3cnc(Cl)s3)CCCN12 [Compound 225]	35	78
CCCCCN=C1CCC([N+](=O)[O-])=C2N(Cc3cnc(Cl)s3)CCCN12 [Compound 226]	22	57
CC(C)N=C1CCC([N+](=O)[O-])=C2N(Cc3cnc(Cl)s3)CCCN12 [Compound 227]	100	100
